Experimental data from patent US20120017924A1 (priority 2001, published 2012).
Where two headings read alike, the source gives them in different places.

Legend:
[1] = From the text: Absorption of nicotine from the oral cavity to the systemic circulation is dependent on the pH of the saliva, pH of the blood plasma and the pKa of nicotine, which is about 7.8. Assuming a pH of the plasma of 7.4 and of the saliva of 6.8 only about 10% of the nicotine will be in the free base form. Thus, in order to promote absorption of nicotine in a free base form, which is the form predominantly absorbed through the mucosa, the pH of the saliva must be increased. At a pH of 8.8 about 90% of the nicotine will then be in the free base form.
[2] = tested on: adult; details: Merck Index; cited from earlier work
[3] = smoking a cigarette; cited from earlier work

Compound: CN1CCCC1c1cccnc1 (stereo not shown) [nicotine, 3-(1-methyl-2-pyrrolidinyl)-pyridine]
- nicotine in the free base form ([1]; assuming pH of plasma 7.4 and of saliva 6.8): about 10%
- nicotine in the free base form ([1]; at a pH of 8.8): about 90%
- amount of nicotine able to kill an adult [2]: Approximately forty
- time for nicotine to reach the brain after inhalation [3]: ten
